Measurements: PubChem BioAssay (NCI)
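Step 1: Grow cells in 96-well plates. Step 2: Expose to compound for 48 hours at 5 concentrations. Step 3: Interpolate endpoints linearly; if unreached, use highest concentration. Definition used: TGI = concentration required for complete inhibition of growth.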

Assays:
Assay in all cases: NCI tumour cell line growth inhibition, 48 h
786-0 renal = tested on: 786-0 renal
A498 renal = tested on: A498 renal
A549 NSCLC = tested on: A549 NSCLC
ACHN renal = tested on: ACHN renal
BT-549 breast = tested on: BT-549 breast
CAKI-1 renal = tested on: CAKI-1 renal
CCRF-CEM leukemia = tested on: CCRF-CEM leukemia
COLO 205 colon = tested on: COLO 205 colon
DLD-1 colon = tested on: DLD-1 colon
DMS 114 small cell lung = tested on: DMS 114 small cell lung
DMS 273 small cell lung = tested on: DMS 273 small cell lung
DU-145 prostate = tested on: DU-145 prostate
EKVX NSCLC = tested on: EKVX NSCLC
HCC-2998 colon = tested on: HCC-2998 colon
HCT-116 colon = tested on: HCT-116 colon
HCT-15 colon = tested on: HCT-15 colon
HL-60(TB) leukemia = tested on: HL-60(TB) leukemia
HOP-18 NSCLC = tested on: HOP-18 NSCLC
HOP-62 NSCLC = tested on: HOP-62 NSCLC
HOP-92 NSCLC = tested on: HOP-92 NSCLC
HS 578T breast = tested on: HS 578T breast
HT29 colon = tested on: HT29 colon
IGROV1 ovarian = tested on: IGROV1 ovarian
K-562 leukemia = tested on: K-562 leukemia
KM12 colon = tested on: KM12 colon
KM20L2 colon = tested on: KM20L2 colon
LOX IMVI melanoma = tested on: LOX IMVI melanoma
LXFL 529 NSCLC = tested on: LXFL 529 NSCLC
M14 melanoma = tested on: M14 melanoma
M19-MEL melanoma = tested on: M19-MEL melanoma
MALME-3M melanoma = tested on: MALME-3M melanoma
MDA-MB-231 breast = tested on: MDA-MB-231 breast
MDA-MB-435 = tested on: MDA-MB-435
MDA-N = tested on: MDA-N
MOLT-4 leukemia = tested on: MOLT-4 leukemia
NCI-H226 lung = tested on: NCI-H226 lung
NCI-H23 lung = tested on: NCI-H23 lung
NCI-H460 lung = tested on: NCI-H460 lung
NCI-H522 lung = tested on: NCI-H522 lung
OVCAR-3 ovarian = tested on: OVCAR-3 ovarian
OVCAR-4 ovarian = tested on: OVCAR-4 ovarian
OVCAR-5 ovarian = tested on: OVCAR-5 ovarian
OVCAR-8 ovarian = tested on: OVCAR-8 ovarian
PC-3 prostate = tested on: PC-3 prostate
RPMI-8226 leukemia = tested on: RPMI-8226 leukemia
RXF 393 renal = tested on: RXF 393 renal
SF-268 CNS = tested on: SF-268 CNS
SF-295 CNS = tested on: SF-295 CNS
SF-539 CNS = tested on: SF-539 CNS
SK-MEL-2 melanoma = tested on: SK-MEL-2 melanoma
SK-MEL-28 melanoma = tested on: SK-MEL-28 melanoma
SK-MEL-5 melanoma = tested on: SK-MEL-5 melanoma
SK-OV-3 ovarian = tested on: SK-OV-3 ovarian
SN12C renal = tested on: SN12C renal
SNB-19 CNS = tested on: SNB-19 CNS
SNB-75 CNS = tested on: SNB-75 CNS
SNB-78 CNS = tested on: SNB-78 CNS
SR leukemia = tested on: SR leukemia
SW-620 colon = tested on: SW-620 colon
TK-10 renal = tested on: TK-10 renal
U251 CNS = tested on: U251 CNS
UACC-257 melanoma = tested on: UACC-257 melanoma
UACC-62 melanoma = tested on: UACC-62 melanoma
UO-31 renal = tested on: UO-31 renal
XF 498 CNS = tested on: XF 498 CNS
MCF7 breast = tested on: MCF7 breast
NCI/ADR-RES ovarian = tested on: NCI/ADR-RES ovarian
P388 leukemia = tested on: P388 leukemia
P388/ADR leukemia = tested on: P388/ADR leukemia
SN12K1 renal = tested on: SN12K1 renal

Structure (SMILES): COc1cc(-c2[nH]ccc2Cl)oc1C1=C2N=C3C=C2C(C(C)C)C1CCCCCCCC3 (configuration not stated)
- TGI (786-0 renal): 2.34 µM
- TGI (A498 renal): 5.31 µM
- TGI (A549 NSCLC): 2.88 µM
- TGI (ACHN renal): 3.12 µM
- TGI (BT-549 breast): 2.32 µM
- TGI (CAKI-1 renal): 5.27 µM
- TGI (CCRF-CEM leukemia): 1.74 µM
- TGI (COLO 205 colon): 1.87 µM
- TGI (DLD-1 colon): 2.6 µM
- TGI (DMS 114 small cell lung): 1.87 µM
- TGI (DMS 273 small cell lung): 1.48 µM
- TGI (DU-145 prostate): 1.85 µM
- TGI (EKVX NSCLC): 3.51 µM
- TGI (HCC-2998 colon): 1.77 µM
- TGI (HCT-116 colon): 0.992 µM
- TGI (HCT-15 colon): 1.86 µM
- TGI (HL-60(TB) leukemia): 0.943 µM
- TGI (HOP-18 NSCLC): 2.08 µM
- TGI (HOP-62 NSCLC): 2.07 µM
- TGI (HOP-92 NSCLC): 3.59 µM
- TGI (HS 578T breast): 1.41 µM
- TGI (HT29 colon): 1.11 µM
- TGI (IGROV1 ovarian): 2.71 µM
- TGI (K-562 leukemia): 1.85 µM
- TGI (KM12 colon): 2.83 µM
- TGI (KM20L2 colon): 1.48 µM
- TGI (LOX IMVI melanoma): 0.348 µM
- TGI (LXFL 529 NSCLC): 1.84 µM
- TGI (M14 melanoma): 1.51 µM
- TGI (M19-MEL melanoma): 1.59 µM
- TGI (MALME-3M melanoma): 2.49 µM
- TGI (MDA-MB-231 breast): 1.56 µM
- TGI (MDA-MB-435): 1.4 µM
- TGI (MDA-N): 1.75 µM
- TGI (MOLT-4 leukemia): 1.74 µM
- TGI (NCI-H226 lung): 3.51 µM
- TGI (NCI-H23 lung): 2.05 µM
- TGI (NCI-H460 lung): 1.53 µM
- TGI (NCI-H522 lung): 1.58 µM
- TGI (OVCAR-3 ovarian): 2.05 µM
- TGI (OVCAR-4 ovarian): 2.48 µM
- TGI (OVCAR-5 ovarian): 2.05 µM
- TGI (OVCAR-8 ovarian): 1.83 µM
- TGI (PC-3 prostate): 1.37 µM
- TGI (RPMI-8226 leukemia): 5.34 µM
- TGI (RXF 393 renal): 2.42 µM
- TGI (SF-268 CNS): 4.1 µM
- TGI (SF-295 CNS): 2.39 µM
- TGI (SF-539 CNS): 2.46 µM
- TGI (SK-MEL-2 melanoma): 1.39 µM
- TGI (SK-MEL-28 melanoma): 2.84 µM
- TGI (SK-MEL-5 melanoma): 0.813 µM
- TGI (SK-OV-3 ovarian): 3.77 µM
- TGI (SN12C renal): 3 µM
- TGI (SNB-19 CNS): 5.92 µM
- TGI (SNB-75 CNS): 3.18 µM
- TGI (SNB-78 CNS): 15.5 µM
- TGI (SR leukemia): 0.739 µM
- TGI (SW-620 colon): 1.5 µM
- TGI (TK-10 renal): 5.19 µM
- TGI (U251 CNS): 1.89 µM
- TGI (UACC-257 melanoma): 3.18 µM
- TGI (UACC-62 melanoma): 1.91 µM
- TGI (UO-31 renal): 2.55 µM
- TGI (XF 498 CNS): 2.76 µM

Structure (SMILES): O=P(O)(O)C(CSc1ccccc1)P(=O)(O)O
- TGI (A498 renal): > 100 µM
- TGI (A549 NSCLC): > 100 µM
- TGI (CAKI-1 renal): > 100 µM
- TGI (CCRF-CEM leukemia): > 100 µM
- TGI (COLO 205 colon): > 100 µM
- TGI (DLD-1 colon): > 100 µM
- TGI (DMS 114 small cell lung): > 100 µM
- TGI (DMS 273 small cell lung): > 100 µM
- TGI (EKVX NSCLC): > 100 µM
- TGI (HCC-2998 colon): > 100 µM
- TGI (HCT-116 colon): > 100 µM
- TGI (HCT-15 colon): > 100 µM
- TGI (HL-60(TB) leukemia): > 100 µM
- TGI (HOP-18 NSCLC): > 100 µM
- TGI (HOP-62 NSCLC): > 100 µM
- TGI (HOP-92 NSCLC): > 100 µM
- TGI (HT29 colon): > 100 µM
- TGI (IGROV1 ovarian): > 100 µM
- TGI (K-562 leukemia): > 100 µM
- TGI (KM12 colon): > 100 µM
- TGI (KM20L2 colon): > 100 µM
- TGI (LOX IMVI melanoma): > 100 µM
- TGI (M19-MEL melanoma): > 100 µM
- TGI (MALME-3M melanoma): > 100 µM
- TGI (MCF7 breast): > 100 µM
- TGI (MOLT-4 leukemia): > 100 µM
- TGI (NCI-H226 lung): > 100 µM
- TGI (NCI-H23 lung): > 100 µM
- TGI (NCI-H460 lung): > 100 µM
- TGI (NCI-H522 lung): > 100 µM
- TGI (NCI/ADR-RES ovarian): > 100 µM
- TGI (OVCAR-3 ovarian): > 69.2 µM
- TGI (OVCAR-4 ovarian): > 100 µM
- TGI (OVCAR-5 ovarian): > 100 µM
- TGI (OVCAR-8 ovarian): > 100 µM
- TGI (P388 leukemia): > 100 µM
- TGI (P388/ADR leukemia): > 100 µM
- TGI (RPMI-8226 leukemia): > 100 µM
- TGI (RXF 393 renal): > 100 µM
- TGI (SF-268 CNS): > 100 µM
- TGI (SF-295 CNS): > 100 µM
- TGI (SF-539 CNS): > 100 µM
- TGI (SK-MEL-2 melanoma): > 100 µM
- TGI (SK-MEL-28 melanoma): > 100 µM
- TGI (SK-MEL-5 melanoma): > 100 µM
- TGI (SK-OV-3 ovarian): > 100 µM
- TGI (SN12C renal): > 100 µM
- TGI (SN12K1 renal): > 100 µM
- TGI (SNB-19 CNS): > 100 µM
- TGI (SNB-75 CNS): > 100 µM
- TGI (SNB-78 CNS): > 100 µM
- TGI (SW-620 colon): > 100 µM
- TGI (U251 CNS): > 100 µM
- TGI (UACC-257 melanoma): > 100 µM
- TGI (UACC-62 melanoma): > 100 µM
- TGI (UO-31 renal): > 100 µM
- TGI (XF 498 CNS): > 100 µM
